Several values for one entry are separate records, joined by “and”; a condition that tells them apart may be missing. Equal values may be shown once. Marks after values point to notes of the source that are not given here.
Assays:
EphrinB2-EphB1 = molecular target: T1, EphrinB2-EphB1 (Homo sapiens, UniProt P54762); experiment: Octet 80 sec association/500 sec dissociation, immobilized human EphrinB2-Fc binding to soluble human EphB1-His; details: for EphB1 Inhibition Percent, Inhibition of Association-Dissociation: at 3.2 μM and 580 seconds
T1 construct: soluble human EphB1-His, EphB2-His, and EphB4-His ectodomains; commercially available human EphrinB1-Fc (EB1), EphrinB2-Fc (EB2), and EphrinB3-Fc (EB3) ectodomain proteins; purchased
T1 sequence (P54762 18-540 limits assumed): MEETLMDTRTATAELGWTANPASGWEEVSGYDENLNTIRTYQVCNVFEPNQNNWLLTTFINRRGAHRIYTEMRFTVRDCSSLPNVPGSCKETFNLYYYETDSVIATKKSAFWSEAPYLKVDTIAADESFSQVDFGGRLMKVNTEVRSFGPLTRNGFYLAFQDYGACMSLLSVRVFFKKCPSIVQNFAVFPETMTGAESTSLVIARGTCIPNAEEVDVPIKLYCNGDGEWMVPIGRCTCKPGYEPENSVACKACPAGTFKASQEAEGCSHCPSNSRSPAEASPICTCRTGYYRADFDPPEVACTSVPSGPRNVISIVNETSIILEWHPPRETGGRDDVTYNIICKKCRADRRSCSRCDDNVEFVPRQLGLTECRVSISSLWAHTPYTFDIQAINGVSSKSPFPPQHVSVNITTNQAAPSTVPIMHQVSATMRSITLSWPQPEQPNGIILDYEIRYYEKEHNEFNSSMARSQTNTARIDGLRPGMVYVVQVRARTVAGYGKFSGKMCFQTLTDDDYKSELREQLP
Method: (§1) In another experiment, whether certain A20 analogs might have specificity for different Eph receptors was tested. An Octet RED384 system was used to obtain biophysical ON-OFF binding data (association-dissociation) for the three different human EphrinB2-EphB1, EphrinB2-EphB2, and EphrinB2-EphB4 protein-protein interactions and to assess the effect of A20 chemicals on the binding kinetics.
(§2) FIGS. 72A-72C show three example Octet sensorgram response traces for the immobilized human EphrinB2 ectodomain protein binding to soluble forms of the human EphB1, EphB2, and EphB4 ectodomain proteins, in the absence or presence of an A20 chemical (buffer conditions are always PBSTD:PBS with 0.05% Tween-20, 1% DMSO, and +/− indicated chemical). After loading EphrinB2-Fc protein to Octet AHC biosensors, washing, and obtaining stable baseline measurements in the appropriate PBSTD (either with or without indicated chemical), the sensors are placed in its buffer that also contains the indicated soluble EphB protein for the association step (0-80″), and then returned to its buffer for the dissociation step (81″-580″). In each figure (FIGS. 72A-72C), a sensorgram run using 10 μM of the 2×HCl salt form of A20-I is compared to the no compound control run to exemplify the maximum level of reduced response signal typically obtained with a potent A20 chemical.
(§3) Because the response levels during the dissociation step plateau for the EphrinB2-EphB2 and EphrinB2-EphB1 interactions by the first 80″, AUCs were also calculated for run data encompassing the first 160″ of each experiment to account for both the 80″ association data (red asterisks) and the first 80″ of dissociation data (marked by green line and asterisks).
(§4) The selectivity of another A20 analog (a 3×HCL salt form of compound BQPB4) in comparison to previously tested compound, A20-1, was tested as described in Example 27 above.
(§5) Further to the experiments listed above, a series of dose-response experiments were conducted to determine the IC50 of a selected A20 chemical (A20-1) on the kinetics of human EphrinB2 ligand ectodomain protein binding to its cognate human EphB1, EphB2, and EphB4 receptor ectodomain proteins. FIG. 74A-74C are representative sensorgrams showing the effect of 0, 0.1, 0.2, 0.4, 0.8, 1.6, and 3.2 μM, concentrations of the 2×HCl salt of A20-I along with a 10 μM max standard (also A20-1) on three different Ephrin-EphB interactions (e.g., EphB1 in FIG. 74A, EphB2 in FIG. 74B and EphB4 in FIG. 74C). […] Additional IC50 values were determined at specific timepoints, at 75″ into the association step and at 55″ into the dissociation step (135″).
(§6) All absolute and relative IC50 values are provided in the Table 6 below, where absolute are based off the full binding sensorgram traces, and relative are based off of the max control traces.
(§7) In another experiment, the % inhibition for various A20 analog chemicals against the three different EphrinB2-EphB protein interactions was determined. Specifically, the percent inhibition for immobilized human EphrinB2-Fc binding to 25 nM soluble human EphB1-His (FIG. 76A, enlarged in FIG. 76D), EphB2-His (FIG. 76B, enlarged in FIG. 76E), and EphB4-His (FIG. 76C, enlarged in FIG. 76F) with 3511-I, 8009-9255, QTM-Br, A19, A19-NO2, and IM (all at 3.2 μM) was determined.

EphrinB2-EphB2 = molecular target: T2, EphrinB2-EphB2 (Homo sapiens, UniProt P29323); experiment: Octet 80 sec association/500 sec dissociation, immobilized human EphrinB2-Fc binding to soluble human EphB2-His; details: for EphB2 Inhibition Percent, Inhibition of Association ONLY: at 3.2 μM and 80 seconds; for EphB2 Inhibition Percent, Inhibition of Association ONLY / EphB2 Inhibition Percent, Inhibition of Association-Dissociation: immobilized human EphrinB2, 25 nM soluble human EphB2; for EphB2 Inhibition Percent, Inhibition of Association-Dissociation: at 3.2 μM and 580 seconds
T2 construct: soluble human EphB1-His, EphB2-His, and EphB4-His ectodomains; commercially available human EphrinB1-Fc (EB1), EphrinB2-Fc (EB2), and EphrinB3-Fc (EB3) ectodomain proteins; purchased
T2 sequence (P29323 19-543 limits assumed): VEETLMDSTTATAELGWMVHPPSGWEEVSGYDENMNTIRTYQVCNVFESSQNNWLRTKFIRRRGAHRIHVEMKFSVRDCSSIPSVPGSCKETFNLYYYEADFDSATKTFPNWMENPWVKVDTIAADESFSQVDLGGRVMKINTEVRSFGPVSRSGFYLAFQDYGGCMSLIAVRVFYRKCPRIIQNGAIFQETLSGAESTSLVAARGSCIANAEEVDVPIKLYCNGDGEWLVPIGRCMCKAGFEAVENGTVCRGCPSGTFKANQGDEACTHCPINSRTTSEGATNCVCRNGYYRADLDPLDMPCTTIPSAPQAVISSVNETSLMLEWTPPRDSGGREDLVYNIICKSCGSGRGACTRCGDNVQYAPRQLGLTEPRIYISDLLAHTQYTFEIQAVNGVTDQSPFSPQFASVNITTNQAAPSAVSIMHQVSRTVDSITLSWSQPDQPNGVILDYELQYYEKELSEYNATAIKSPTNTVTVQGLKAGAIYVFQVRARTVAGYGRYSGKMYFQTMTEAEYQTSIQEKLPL
Method: as §1, §2, §3, §4, §5, §6, §7

EphrinB2-EphB4 = molecular target: T3, EphrinB2-EphB4 (Homo sapiens, UniProt P54760); experiment: Octet 80 sec association/500 sec dissociation, immobilized human EphrinB2-Fc binding to soluble human EphB4-His; details: immobilized human EphrinB2, 25 nM soluble human EphB4; for EphB4 Inhibition Percent, Inhibition of Association ONLY: at 3.2 μM and 80 seconds; for EphB4 Inhibition Percent, Inhibition of Association-Dissociation: at 3.2 μM and 580 seconds
T3 construct: soluble human EphB1-His, EphB2-His, and EphB4-His ectodomains; commercially available human EphrinB1-Fc (EB1), EphrinB2-Fc (EB2), and EphrinB3-Fc (EB3) ectodomain proteins; purchased
T3 sequence (P54760 16-539 limits assumed): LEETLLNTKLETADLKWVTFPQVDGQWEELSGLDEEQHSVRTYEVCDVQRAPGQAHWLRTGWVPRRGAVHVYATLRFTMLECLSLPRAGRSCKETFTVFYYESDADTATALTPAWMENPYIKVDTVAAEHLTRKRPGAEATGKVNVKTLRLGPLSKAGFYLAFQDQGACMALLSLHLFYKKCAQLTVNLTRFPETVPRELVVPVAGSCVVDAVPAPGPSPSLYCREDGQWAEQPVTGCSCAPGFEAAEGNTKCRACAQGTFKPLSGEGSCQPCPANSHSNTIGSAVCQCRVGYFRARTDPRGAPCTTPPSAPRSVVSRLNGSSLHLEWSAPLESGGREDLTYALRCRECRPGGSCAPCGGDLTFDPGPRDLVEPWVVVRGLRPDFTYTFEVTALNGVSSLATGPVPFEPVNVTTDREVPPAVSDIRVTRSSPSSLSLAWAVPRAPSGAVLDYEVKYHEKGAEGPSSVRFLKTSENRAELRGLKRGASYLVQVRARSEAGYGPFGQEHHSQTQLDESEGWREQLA
Method: as §1, §2, §3, §4, §5, §6, §7

[1] = EphB2, 25 nM EphB2, 3.2 μM compound, A20-I as max control, 0* = less than 0, no inhibition, listed as A20-1.2xMSA, methanesulfonate

## Oc1ccc(CN2CCN(Cc3ccc(C(F)(F)F)cc3)CC2)c2cccnc12 [Compound 49, 8-hydroxy-5-((4-(4-(trifluoromethyl)benzyl)piperazin-1-ium-1-yl)methyl)quinolin-1-ium chloride]
EphrinB2-EphB1; immobilized human EphrinB2, 25 nM soluble human EphB1
  EphB1 Inhibition Percent, Inhibition of Association-Dissociation: 19.8% and 39.0%
EphrinB2-EphB2
  EphB2 Inhibition Percent, Inhibition of Association ONLY: 21.3% and 24.9%
  EphB2 Inhibition Percent, Inhibition of Association-Dissociation: 46.2% and 36.2%
EphrinB2-EphB4
  EphB4 Inhibition Percent, Inhibition of Association ONLY: 0*/0*%
  EphB4 Inhibition Percent, Inhibition of Association-Dissociation: 0% and 2.8%

## Oc1c(I)cc(CN2CCOCC2)c2cccnc12 [Compound 89, 4-((8-hydroxy-7-iodoquinolin-1-ium-5-yl)methyl)morpholin-4-ium methanesulfonate]
EphrinB2-EphB1; EphB1, 25 nM EphB1, 3.2 μM compound, A20-I as max control, 0* = less than 0, no inhibition, listed as A20-1.2xMSA, methanesulfonate
  % Inhibition: Association + Dissociation (160 sec): 46.3%
EphrinB2-EphB1; at 3.2 μM and 80 seconds, immobilized human EphrinB2, 25 nM soluble human EphB1, methanesulfonate
  EphB1 Inhibition Percent, Inhibition of Association ONLY: 28.4%
EphrinB2-EphB1; immobilized human EphrinB2, 25 nM soluble human EphB1, methanesulfonate
  EphB1 Inhibition Percent, Inhibition of Association-Dissociation: 46.3%
EphrinB2-EphB2; [1]
  % Inhibition: Association + Dissociation (160 sec): 74.6%
  % Inhibition: Association ONLY (80 sec): 55.1%
EphrinB2-EphB2; methanesulfonate
  EphB2 Inhibition Percent, Inhibition of Association ONLY: 55.1%
  EphB2 Inhibition Percent, Inhibition of Association-Dissociation: 74.6%
EphrinB2-EphB4; methanesulfonate
  EphB4 Inhibition Percent, Inhibition of Association ONLY: 1.7%
  EphB4 Inhibition Percent, Inhibition of Association-Dissociation: 25.4%

Source: US20260374739A1, “SMALL MOLECULAR WEIGHT CHEMICAL COMPOUND TO ANTAGONIZE EPH-EPHRIN TETRAMERIZATION AND INHIBIT BIDIRECTIONAL SIGNALING” (THE BOARD OF REGENTS OF THE UNIVERSITY OF TEXAS SYSTEM, priority 2022, published 2026)
